Results published in US20240197891A1, “PHARMACEUTICAL COMPOSITIONS COMPRISING POH DERIVATIVES” (UNIVERSITY OF SOUTHERN CALIFORNIA, priority 2021, published 2024).
Each block holds one molecule with its values, some of them ahead of it.

Assays:
[1] = test system: UV-B exposed skin; assay: UV-B induced skin damage in SKH-1 hairless mice; format: in vivo, mouse; conditions: topical post exposure
Method: (§1) FIG. 23 illustrates the simulation of sunlight by irradiation with UVB lamps (310 nm). The irradiation was conducted in a phototoxicity testing chamber and fitted with a UV-B lamp providing with a spectral output of approximately 310 nm. The source of UVR was a short-wavelength UV lamp (VWR. Radnor, PA). The peak spectral output of this lamp was approximately 310 nm, with no energy detectable below 260 nm, approximately 0.6% between 260 and 280 nm (UV-C), 72.7% between 280 and 320 nm (UV-B), and 26.7% between 320 and 400 nm (UV-A). Radiation dosage of UV-B per irradiation was set at 54 mJ/cm^2 for the first week, 72 mJ/cm^2 for the second week, 90 mJ/cm^2 for the third week, and 108 mJ/cm^2 for the remaining weeks, as confirmed by a UV monitor. Each irradiation event was 10 minutes long.
POH-LA conjugate, linoleic acid, POH, and the additive combination of linoleic acid and POH were each suspended in glycerol:ethanol (90:10 vol/vol) to a final concentration of 10 nM with 50 μL and applied to each SKH-1 hairless mouse post UV-B exposure for treatment. The sunblock mouse was gently wiped on the exposure area with the sunblock towelette. […] In FIG. 23B, the mice were treated with the glycerol:ethanol vehicle only. In FIG. 23C, the mice were treated with POH. In FIG. 23D, the mice were treated with linoleic acid. In FIG. 23E, the mice were treated with an mixture of linoleic acid and POH. In FIG. 23F, the mice were treated with POH-LA conjugate. In FIG. 23G, the mice were treated with sunblock. The application of POH-LA conjugate to UV-B exposed tissue limits the amount of observable skin damage as compared to the untreated control (B) or the individual components of POH-LA conjugate either alone (POH—C and LA—D), in mixture (E), or with sunblock (G).
as §1, with “FIGS. 24A-D illustrates the” for “FIG. 23 illustrates the”, “UV lamp (VWR, Radnor, PA).” for “UV lamp (VWR. Radnor, PA).”, “second week, and 90 mJ/cm^2” for “second week, 90 mJ/cm^2”, “third week, as confirmed” for “third week, and 108 mJ/cm^2 for the remaining weeks, as confirmed”, “UV monitor.” for “UV monitor. Each irradiation event was 10 minutes long.”
POH-LA conjugate (FIG. 24A), linoleic acid (FIG. 24B), POH (FIG. 24C), and the additive combination of linoleic acid and POH (FIG. 24D) were each suspended in glycerol:ethanol (90:10 vol/vol) to a final concentration of 10 nM with 50 μL applied to each mouse post UV-B exposure for treatment. The application of POH-LA conjugate to UV-B exposed tissue limits the amount of observable skin damage as compared the individual components of POH-LA conjugate either alone or in mixture.
as §1, with “This example” for “FIG. 23”, “nm)” for “nm). The irradiation”, “(VWR,” for “(VWR.”, “monitor.” for “monitor. Each irradiation event was 10 minutes long.”
POH-LA conjugate, linoleic acid, POH, and the additive combination of linoleic acid and POH were each suspended in glycerol:ethanol (90:10 vol/vol) to a final concentration of 10 nM with 50 μL applied to each mouse post UV-B exposure for treatment. […]

[2] = test system: IL-1β; assay: Serum IL-1β following UV exposure; format: in vivo, mouse
Method: (§2) SKH-1 hairless mice were treated with 10 mg/kg POH-LA conjugate freshly prepared daily. The POH-LA conjugate was formulated in glycerol:ethanol (90:10) while the control animals received the glycerol:ethanol vehicle only or the commercially available sunblock (Well & Good Sun Protection Wipes SPF 15). Additional test groups were treated with POH formulated in the glycerol:ethanol vehicle or linoleic acid formulated in the glycerol:ethanol vehicle. 50 μL of each formulation was placed on a area 1 cm^2 area that was exposed to the UV light. The mice were treated with their respective formulations after exposure to the UV light. In FIG. 22A, the mouse was treated with sunblock. In FIG. 22B, the mouse was treated with POH. In FIG. 22C, the mouse was treated with linoleic acid. In FIG. 22D, the mouse was treated with POH-LA conjugate. In FIG. 22D, the mouse was treated with the glycerol:ethanol vehicle only. The POH-LA conjugate, POH or linoleic acid solutions were gently spread on the skin surface and allowed to air dry. The sunblock mouse was gently wiped on the exposure area with the sunblock towelette. This exposure and treatment went on for a maximum of 10 weeks. Throughout the experimental period the animals were photographed and weighed. At the end of the experimental period the mice were photographed and euthanized, followed by skin and blood collection. Blood was analyzed for markers of inflammation and DNA recovered from the exposed area of the skin and analyzed for markers of DNA damage.
(§3) Furthermore, blood samples were taken from each mouse 4 hours after the last cutaneous treatment. About 0.5 mL of blood was collected by cardiac puncture […]. Serum was aliquoted in Eppendorf tubes and store at −80° C. as preparation for cytokine analyses. […]
(§4) Mice were treated with 10 mg/kg POH-LA conjugate freshly prepared daily. […] Blood was analyzed for markers of inflammation and DNA recovered from the exposed area of the skin and analyzed for markers of DNA damage.

[3] = test system: IL-6; assay: Serum IL-6 following UV exposure; format: in vivo, mouse
Method: as §2, with “In FIG. 22D, the mouse was treated with the glycerol:ethanol vehicle only.” left out
as §3, §4

[4] = test system: TNF-α; assay: Serum TNF-α following UV exposure; format: in vivo, mouse
Method: as §2, §3, §4

[5] = test system: U87 human glioma cells; assay: MTT cytotoxicity assay, U87 cells; format: cell-based; conditions: Homo sapiens, U-87 MG, U-87 cells, 48 hours
Source text: (§5) In vitro efficacy of the present composition can be determined using methods well known in the art. For example, the cytotoxicity of the present monoterpene (or sesquiterpene) and/or the therapeutic agents may be studied by MTT [3-(4,5-dimethylthiazol-2-yl)-2,5-diphenyl tetrazolium bromide] cytotoxicity assay. MTT assay is based on the principle of uptake of MTT, a tetrazolium salt, by metabolically active cells where it is metabolized into a blue colored formazan product, which can be read spectrometrically. J. of Immunological Methods 65: 55 63, 1983. The cytotoxicity of the present monoterpene (or sesquiterpene) derivative and/or the therapeutic agents may be studied by colony formation assay. Functional assays for inhibition of VEGF secretion and IL-8 secretion may be performed via ELISA. Cell cycle block by the present monoterpene (or sesquiterpene) derivative and/or the therapeutic agents may be studied by standard propidium iodide (PI) staining and flow cytometry. Invasion inhibition may be studied by Boyden chambers. In this assay a layer of reconstituted basement membrane, Matrigel, is coated onto chemotaxis filters and acts as a barrier to the migration of cells in the Boyden chambers. Only cells with invasive capacity can cross the Matrigel barrier. Other assays include, but are not limited to cell viability assays, apoptosis assays, and morphological assays. […]

[6] = test system: A172 human glioma cells; assay: MTT cytotoxicity assay, A172 cells; format: cell-based; conditions: Homo sapiens, A-172 cells, 48 hours
Source text: as §5

[7] = test system: LN229 human glioma cells; assay: cells; conditions: Homo sapiens, LN-229, 48 h
Source text: (§6) In vitro efficacy of the present composition can be determined using methods well known in the art. For example, the cytotoxicity of the present monoterpene (or sesquiterpene) and/or the therapeutic agents may be studied by MTT [3-(4,5-dimethylthiazol-2-yl)-2,5-diphenyl tetrazolium bromide] cytotoxicity assay. MTT assay is based on the principle of uptake of MTT, a tetrazolium salt, by metabolically active cells where it is metabolized into a blue colored formazan product, which can be read spectrometrically. J. of Immunological Methods 65: 55 63, 1983. The cytotoxicity of the present monoterpene (or sesquiterpene) derivative and/or the therapeutic agents may be studied by colony formation assay. Functional assays for inhibition of VEGF secretion and IL-8 secretion may be performed via ELISA. Cell cycle block by the present monoterpene (or sesquiterpene) derivative and/or the therapeutic agents may be studied by standard propidium iodide (PI) staining and flow cytometry. Invasion inhibition may be studied by Boyden chambers. In this assay a layer of reconstituted basement membrane, Matrigel, is coated onto chemotaxis filters and acts as a barrier to the migration of cells in the Boyden chambers. Only cells with invasive capacity can cross the Matrigel barrier. Other assays include, but are not limited to cell viability assays, apoptosis assays, and morphological assays.
(§7) To compare the cytotoxicity of Rolipram POH Carbamate (POH-Rolipram) (e.g., synthesized by the method in Example 5) with rolipram, […] inducing differentiation and apoptosis in glioma cells, A172, U87, U251 and LN229 human glioma cells were treated with either POH-Rolipram or rolipram for 48 hours.

[8] = test system: U251 human glioma cells; assay: MTT cytotoxicity assay, U251 cells
Source text: as §6, §7
MTT cytotoxicity assays were carried out after cells were treated with the TMZ-POH conjugate. The MTT cytotoxicity assays were carried out as described in Chen T C, et al. Green tea epigallocatechin gallate enhances therapeutic efficacy of temozolomide in orthotopic mouse glioblastoma models. Cancer Lett. 2011 Mar. 28; 302(2):100-8.

[9] = test system: human malignant glioma cells U87, A172 and U251; assay: MTT cytotoxicity assays on U87, A172 and U251 cells (stated jointly); format: cell-based
Method: J. of Immunological Methods 65: 55 63, 1983. […] Invasion inhibition may be studied by Boyden chambers.
Then U87, A172 and U251 cells were treated with dimethyl celecoxib bisPOH carbamate (POH-DMC) (e.g., synthesized by the method in Example 1), and the MTT cytotoxicity assays performed (FIG. 2).
Then TMZ-resistant glioma cell lines U87, A172 and U251 cells were treated with temozolomide POH carbamate (POH-TMZ) (e.g., synthesized by the method in Example 3).

[10] = test system: USC-04 glioma cancer stem cells; assay: MTT cytotoxicity assay, USC-04 glioma cancer stem cells; format: cell-based; conditions: USC-04; increasing concentrations (TMZ 0-400 uM; POH 0-2 mM)
Source text: (§8) Cancer Lett. 2011 Mar. 28; 302(2):100-8.

[11] = test system: TMZ sensitive (U251) cells; assay: Colony forming assay, TMZ sensitive U251 cells; format: cell-based, human; conditions: TMZ sensitive U251 cells
Method: (§9) Colony forming assays were carried out after cells were treated with TMZ alone, POH alone, and the TMZ-POH conjugate. […] Cancer Lett. 2011 Mar. 28; 302(2):100-8.

[12] = test system: USC-02 glioma cancer stem cells; assay: MTT cytotoxicity assay, USC-02 glioma cancer stem cells; format: cell-based; conditions: USC-02; increasing concentrations (TMZ 0-400 uM; POH 0-2 mM)
Source text: as §8

[13] = test system: TMZ resistant (U251TR) U251 cells; assay: Colony forming assay, TMZ resistant U251TR cells; format: cell-based, human
Method: as §9

Compound: CCCCC/C=C\C/C=C\CCCCCCCC(=O)O [linoleic acid]
observable skin damage ([1]; 3 weeks of UV-B exposure and treatment): displayed damage
observable skin damage ([1]; 5 weeks of UV-B exposure and treatment): displayed damage
IL-1β serum levels increase [2]: 8.3 ± 2.1 pg/mL
IL-6 levels [3]: 18.3 ± 3.4 pg/mL
TNF-α levels [4]: 126.9 ± 14.6 pg/mL

IC50 [7]: > 100 µM
Compound: COc1ccc(C2CNC(=O)C2)cc1OC1CCCC1 (stereo not shown) [rolipram, reference compound]
IC50 [5]: > 1000 µM
IC50 [6]: ~1000 µM
plateau cytotoxicity [8]: 60%
IC50 ([8]; Homo sapiens, U-251, 48 h): 170 µM

Compound: C=C(C)C1CC=C(COC(=O)N(C(=O)OCC2=CCC(C(=C)C)CC2)S(=O)(=O)c2ccc(-n3nc(C(F)(F)F)cc3-c3cc(C)ccc3C)cc2)CC1 (stereo not shown) [POH-DMC]
cytotoxicity / kill rates (MTT) [9]: much better cytotoxicity than DMC alone

Compound: Cn1nnc2c(C(N)=O)ncn2c1=O [TMZ, temozolomide]
cytotoxicity (MTT) [10]: did not induce significant cytotoxicity
cytotoxicity / kill rates (MTT) [9]: minimal cytotoxicity
cytotoxicity (colony forming assay) [11]: demonstrated cytotoxicity
cytotoxicity (MTT) [12]: did not induce significant cytotoxicity
cytotoxicity (colony forming assay) [13]: minimal cytotoxicity
